Measured values as given in the METLIN SMRT retention time set (Domingo-Almenara et al. 2019).

assay: gradient 5% acetonitrile 3 min, to 50% in 2 min, to 85% in 15 min, held 3 min, 100 µL/min; conditions: column: Zorbax Extend-C18 2.1 x 50 mm; eluents: water / acetonitrile, 0.1% formic acid
In short: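 Pure standards were run in mixtures of ~100 molecules by HPLC coupled to a quadrupole time-of-flight mass spectrometer. The column was a Zorbax Extend-C18 (2.1 × 50 mm, 1.8 μm) at 100 μL/min, with water and acetonitrile each containing 0.1% formic acid, in positive and negative ionization mode. Dead and dwell volumes were 40 μL and 900 μL. Retention time was taken from computationally picked adduct peaks, each manually inspected, with data collected over 3 months.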

Compound | RP-LC retention time [s]
O=C(NCc1cccc2ccccc12)NCC1CN(c2ccccc2)C(=O)O1 (centres undefined) | 781
COc1cccc(NC(=O)CN2C(=O)NC3(CCC(C)CC3)C2=O)c1 (centres undefined) | 789
O=C(NCC1CCOCC1)c1ccccc1Br | 671
CCN1C(=O)COc2cc(-c3noc(C(=O)NCCC4=CCCCC4)n3)ccc21 | 1120
CC(C)CC(=O)Nc1ccc2nc(N3CCN(c4cccc(Cl)c4)CC3)cc(C(=O)O)c2c1 | 762
CC1CCN(c2cncnc2-n2cc(NC(=O)NC(C)(C)C)cn2)CC1 | 722
CCOC(=O)c1c(CN(C)C)n(C)c2cc(C#N)c(O)cc12 | 598
O=C(Cn1ccc2sccc2c1=O)NCc1ccccc1 | 696
COC(=O)c1ccccc1NC(=O)CSc1ccc(N2CCCC(C(=O)NC3CC3)C2)nn1 (centres undefined) | 683
Cc1ccc2c(c1)N(C(=O)C1CCN(S(=O)(=O)c3cccnc3)CC1)CCO2 | 823
O=C(Cc1ccc(F)cc1)Nc1nnc(C2CC(=O)N(c3ccc(Cl)cc3)C2)o1 (centres undefined) | 789
COc1cc(OC)c(NC(=O)C(C)Oc2ccc(=O)n(-c3ccc(F)cc3)n2)cc1Cl (centres undefined) | 844
O=C(NCCc1c[nH]c2ccccc12)C(=O)c1cn(CC(=O)N2CCOCC2)c2ccccc12 | 832
Cn1nnnc1SCC(=O)Nc1nc(-c2ccccc2)c(-c2ccccc2)o1 | 888
O=C(COc1cccc(Cl)c1)Nc1nc(-c2ccc(Br)cc2)cs1 | 1260
Cc1nc(C)c(C(=O)N2C[C@H]3C[C@H](C2)[C@H]2CCCC(=O)N2C3)s1 | 755
COc1ccc(NC(=O)CN2C(=O)NC3(CCCCC3)C2=O)cc1Cl | 778
Cc1[nH]c2ccccc2c1C(=O)C(=O)NC1CC(=O)N(c2ccccc2)C1 (centres undefined) | 711
CC(C)c1nc(N2CCCC2=O)sc1C(=O)NCc1ccc(N(C)C)cc1 | 675
CCNc1nc(NCC)n2c(SCC(=O)c3cccc(Br)c3)nnc2n1 | 680
Fc1cccc(Cl)c1CN1CC(c2nc(C3CC3)no2)C1 | 564
Cc1cccc(N2C(=O)CN(CCc3ccccc3F)[C@H]3CS(=O)(=O)C[C@H]32)c1 | 840
COC(=O)c1ccc(NC(=O)Cn2cccc(-c3nc(-c4ccc(OC)c(OC)c4)no3)c2=O)cc1 | 1010
CCOC(=O)C(C)Oc1cccc2c(=O)n(CC(=O)Nc3ccc([N+](=O)[O-])cc3)ccc12 (centres undefined) | 842
O=C(c1cccnc1)N1CCC(c2nc(-c3ccccc3)no2)C1 (centres undefined) | 726
Cc1ccc(-c2cn3cccc(C)c3n2)cc1NS(=O)(=O)c1ccc(Cl)cc1 | 714
Cc1ccc(-c2cc(C(F)(F)F)on2)cc1S(=O)(=O)N1CCC(C)CC1 | 1280

Compound | RP-LC retention time [s]
Cc1ccc2ncn3c(=O)n(CC(=O)Nc4ccc(C(C)C)cc4)nc3c2c1 | 754
Cc1ccn2cc(C(=O)N3CCN(c4ccc(F)cc4)CC3)nc2c1 | 650
CCC(=O)N(C)CCc1noc(COc2cccc(C(F)(F)F)c2)n1 | 842
CCN1C(=O)c2cccnc2Sc2cc(CNC(=O)c3ccc(C#N)cc3F)ccc21 | 760
CC1CCN(C(=O)C2=NN(Cc3cccc(F)c3)c3ccccc3S2(=O)=O)CC1 | 1010
O=C1c2cc(NC(=O)C3(c4cccs4)CCCC3)ccc2OCCC2CCCCN12 (centres undefined) | 974
O=C1NCCCCCCN(C(=O)c2ccoc2)[C@H]2C[C@H](C(=O)N3CCc4ccccc4C3)C[C@@H]12 | 762
CC(C)CC(=O)N1CCC(Cc2nnc(-c3ccccc3)o2)CC1 | 818
Cc1cc(NC(=O)C(C)n2nc(-c3ccc(F)cc3)ccc2=O)on1 (centres undefined) | 735
Cc1nn(-c2ccccc2)c(C)c1S(=O)(=O)N1CCC(C(=O)NC2CC2)CC1 | 744
CCc1ccc(CNC(=O)Cc2nnc(-c3ccccn3)o2)cc1 | 743
CC(Cc1ccccc1)NC(N)=O (centres undefined) | 698
CC(C)(C)C1CCC2(CC1)CCN(CCCN1CCOCC1)CC2 | 619
CN(C)c1ccc(-c2nc3cnc(Br)cn3c2Nc2ccc3c(c2)OCO3)cc1 | 894
CCc1cccc(C)c1NC(=O)Cn1nc(N2CCOCC2)c2ccccc2c1=O | 809
O=C1COc2ccc(-c3csc(NC(=O)c4ccc(Cl)cc4)n3)cc2N1 | 899
COC(=O)Cn1cnc2c(-c3ccc(Br)cc3)csc2c1=O | 943
CN1C(=O)[C@H]2CN(Cc3ccccc3OC(F)(F)F)C[C@H]2C1=O | 691
COc1ccccc1-c1nc(Cc2noc(-c3ccccc3)n2)c(C)o1 | 1040
CCc1noc([C@@H]2CC(F)(F)CN2C(=O)Cn2ccnc2)n1 | 570
Cc1ccc(-c2nc(NC(=O)/C=C/c3ccc(Cl)cc3)sc2C)cc1 | 1300
CC(C)c1ccc(-c2nc(-c3ccc4c(c3)oc(=O)n4C)no2)cc1 | 1250
CCN1c2cc(Cl)ccc2C(=O)NC12CCN(C(=O)NCc1ccc(F)cc1)CC2 | 840
CN1C(=O)C2CCCCN2c2ccc(C(=O)NCCc3cccs3)cc21 (centres undefined) | 872
Cc1ccc2c(Nc3ccc(C(C)C)cc3)c(C(=O)N3CCC(C)CC3)cnc2n1 | 737
COc1ccccc1-c1ccc(=O)n(Cc2nc(-c3ccc(F)cc3)no2)n1 | 995
Clc1cccc(-c2nnc(-c3nc(NC4CCCC4)c4ccccc4n3)o2)c1 | 1170

The next lines start with the values.

RP-LC retention time [s] | Compound
660 | COc1cc([C@@H]2c3cc4c(cc3[C@H](O)[C@@H](CO)[C@@H]2C(=O)NC(C)C)OCO4)cc(OC)c1OC
772 | O=C(NCC1CCN(C(=O)Nc2ccc(F)cc2)CC1)Oc1ccccc1
706 | O=S(=O)(c1ccc2c(c1)CCCC2)N1CCCn2nc(-c3ccncc3)cc2C1
976 | COc1ccc(N2C(=O)C3N=NN(Cc4nc(-c5ccccc5C)no4)C3C2=O)cc1 (centres undefined)
1420 | Cc1csc(-c2cc(S(=O)(=O)NCCCN3CCCc4ccccc43)c(C)s2)n1
732 | CCc1ccccc1NC(=O)CSc1nc2nc(C)cc(C)n2n1
811 | O=c1n(CCOc2ccc(F)cc2)nc2ccc(S(=O)(=O)N3CCOCC3)cn12
604 | CCNC(=O)Nc1ccc(OCC(=O)N2CCN(c3ncccn3)CC2)nc1
651 | CCCNC(=O)N1CCC(N2CCN(Cc3cccc(F)c3)C(=O)C2=O)CC1
711 | CCCn1cc(-c2ccncc2)cc1C(=O)NCc1cc(F)cc(F)c1
918 | COc1ccc(Cn2nc3ccc(S(=O)(=O)N4CCCCC4)cn3c2=O)cc1F
848 | CCn1cc(-c2nc(CC(=O)NC3CCCC3)cs2)c2cccnc21
1200 | CCn1c(C(=O)NCc2ccc(C)cc2)cc2sc(Cl)cc21
657 | CCCNC(=O)C1CCN(c2ccc(SCC(=O)Nc3c(C)cc(C)cc3C)nn2)CC1
1060 | Cc1cc2nn(CC(=O)N3CCCc4ccccc43)c(=O)n2c(Nc2ccc(F)cc2)n1
936 | CCCN(CC1CCOC1)S(=O)(=O)c1ccc(OC)c(Cl)c1 (centres undefined)
1090 | COc1ccc(NC(=O)c2cc3c(=O)n(CC(C)C)c4ccccc4n3n2)c(C)c1
716 | O=S(=O)(c1cccc2c(Cl)cccc12)N1CCCNCC1

RP-LC retention time [s] | Compound
642 | COCCNC(=O)C1c2cc(OC)c(OC)cc2C(=O)N(C)C1c1ccc(OC)c(OC)c1 (centres undefined)
853 | CCC(=O)N1CCc2ccccc2C1C(=O)NCc1ccc(SC)cc1 (centres undefined)
677 | Cc1ccc(-c2nc(CN3CCN(C(=O)NC4CCCC4)CC3)c(C)o2)cc1
594 | CCCCN(C)Cc1nc(-c2ccc(N3CCOCC3)nc2)no1
812 | COc1ccc(NC(=O)c2ccc(-c3ccc(-c4noc(C)n4)cc3C)cc2)cc1N1CCN(C)CC1
560 | CN(C)c1ccc2c(c1)CN(C(=O)c1cnn(C)c1)CCO2
921 | CC1=NS(=O)(=O)N(C)C=C1C(=O)OCCOc1ccccc1
779 | CN1C(=O)CCc2cc(NS(=O)(=O)c3ccccc3C(F)(F)F)ccc21
799 | O=c1c2cc3c(cc2nc(SCc2nc(-c4ccc(F)cc4)no2)n1Cc1ccncc1)OCO3
1020 | COc1ccc2c(c1)C1CC(C)(O2)N(C)C(=O)C1S(=O)(=O)c1ccc(C)cc1 (centres undefined)
661 | CCOC(=O)c1ccc2c(=O)c(C(=O)OCC)c[nH]c2c1
615 | O=C(NCC(=O)N1CCN(c2ncccn2)CC1)c1c[nH]c2ccccc12
656 | CCCNC(=O)N1CCN(Cc2nc3cccnc3n2-c2cc(C)cc(C)c2)CC1
732 | COc1cccc(NC2=NS(=O)(=O)c3ccccc32)c1
784 | CCOC(=O)Cc1ccc(NC(=O)NC2CCN(c3ccc(C)cc3)C2=O)cc1 (centres undefined)
603 | CCC(=O)N1CCN(Cc2nc3cc(NC(=O)CC(C)C)ccc3n2C)CC1
704 | CCNC(=O)c1sc2nc(-c3ccc(OC)cc3)c(NCCOC)n2c1C
